Reference: US4477659A, “Cephalosporin compound” (Asahi Kasei Kogyo Kabushiki Kaisha, priority 1981, dated 1984)
≈ marks a conversion by molar mass, not a printed value.

Key:
[1] = Absorption test, oral, rats, solution in buffer pH 7 (Example 16); assay type: in vivo, Male Wistar rats; conditions: blood, 50 mg/kg oral, rat, average of 6, read-out: Blood Concentration of the Compound
Description: The absorption test of the compounds as obtained in Examples 1-11 were tested by the following method.
(§1) Male Wistar rats weighing 180-250 g were fed with only water overnight. The next day the rats were orally administered with 50 mg/kg of a test compound which was dissolved in a buffer solution having pH of 7. The concentration of the compound in blood of the tested animals (one group consisting of 6 animals) was measured 0.5, 1, 2 and 4 hours after the administration by Bioassay method by using Bacillus subtilis ATCC 6633 strain as an indicator bacteria. In the measurement, an ordinary culture medium was employed, and the preparation of the standard solution and other method were carried out in according to Japanese Antibiotical Pharmaceutical Standards. Further, the concentration of the compound in blood was also measured by high performance liquid chromatography. The blood concentration shown below was an average value of each animal group.

[2] = Blood concentration, oral, rats, suspended in CMC aqueous solution (Example 17); assay type: in vivo, Male Wistar rats; conditions: 50 mg/kg oral, rat; for concentration at 0.5 h / concentration at 1 h / concentration at 4 h: blood, read-out: Blood Concentration of the Compound
Description: as §1
The blood concentration of the compounds as obtained in Examples 12-15 and the compounds as obtained in the same manner as in Examples 3 and 12, respectively, was measured. The measurement was carried out in the same manner as Example 16 except that the test compound was suspended in a CMC aqueous solution instead of being dissolved in a buffer solution having pH of 7.

[3] = tested on: Salm enteritidis Gaertner; assay: MIC (Table 4); assay type: cell-based; conditions: 10^8 cells/ml; unit assumed
Excerpt: (§2) | MIC Value (10^8 cells/ml)

E. Coli W3630 = assay: MIC (Table 4); assay type: cell-based; conditions: 10^8 cells/ml; unit assumed
Excerpt: as §2

Staph. aureus MS 27 = assay: MIC (Table 4); assay type: cell-based; conditions: 10^8 cells/ml; unit assumed
Excerpt: as §2

Staph. aureus 0003 = assay: MIC (Table 4); assay type: cell-based; conditions: 10^8 cells/ml; unit assumed
Excerpt: as §2

Staph. aureus ATCC 6538p = assay: MIC (Table 4); assay type: cell-based; conditions: 10^8 cells/ml; unit assumed
Excerpt: as §2

E. Coli NIHJ-JC2 = assay: MIC (Table 4); assay type: cell-based; conditions: 10^8 cells/ml; unit assumed
Excerpt: as §2

[4] = tested on: Klebs. pneumoniae ATCC 10031; assay: MIC (Table 4); assay type: cell-based; conditions: 10^8 cells/ml; unit assumed
Excerpt: as §2

E. Coli W3630 ps 3 = assay: MIC (Table 4); assay type: cell-based; conditions: 10^8 cells/ml; unit assumed
Excerpt: as §2

Compound: N[C@@H](Cc1c[nH]c(SCC(=O)N[C@@H]2C(=O)N3C(C(=O)O)=C(CSc4nc[nH]n4)CS[C@H]23)n1)C(=O)O [Example 4, 7-β-[4-(2'-amino-2'-carboxy)ethylimidazol-2-yl-thioacetamido]-3-[(1,3,4-triazole)thiomethyl]-3-cephem-4-carboxylic acid]
- concentration at 0.5 h [1]: 2100 ng/mL
- concentration at 1 h [1]: 1200 ng/mL
- concentration at 2 h [1]: 400 ng/mL
- concentration at 4 h [1]: 100 ng/mL

Compound: Cn1nnnc1SCC1=C(C(=O)O)N2C(=O)[C@@H](NC(=O)CSc3nc(C[C@H](NC=O)C(=O)O)c[nH]3)[C@H]2SC1 [Example 15, 7-β-[4-(2'-formamido-2'-carboxy)ethylimidazol-2-yl-thioacetamido]-3-[(1-methyl-1H-tetrazol-5-yl)thiomethyl]-3-cephem-4-carboxylic acid]
- concentration at 0.5 h ([2]; 0.5 hr.): 3900 ng/mL
- concentration at 1 h ([2]; 1 hr.): 2700 ng/mL
- concentration at 4 h ([2]; 4 hrs.): 1700 ng/mL

Compound: CC1=C(C(=O)O)N2C(=O)[C@@H](NC(=O)[C@H](N)c3ccccc3)[C@H]2SC1 [Cephalexin, reference compound]
- MIC Value [3]: > 100 µg/mL
- MIC Value (E. Coli W3630): > 100 µg/mL
- MIC Value (Staph. aureus MS 27): 50 µg/mL (≈ 144 µM)
- MIC Value (Staph. aureus 0003): 50 µg/mL (≈ 144 µM)
- MIC Value (Staph. aureus ATCC 6538p): 3.1 µg/mL (≈ 8.92 µM)
- MIC Value (E. Coli NIHJ-JC2): > 100 µg/mL
- MIC Value [4]: 25 µg/mL (≈ 72 µM)
- MIC Value (E. Coli W3630 ps 3): > 100 µg/mL

Compound: COC1=C(C(=O)O)N2C(=O)[C@@H](NC(=O)CSc3nc(C[C@H](N)C(=O)O)c[nH]3)[C@H]2SC1 [Example 9, 7-β-[4-(2'-amino-2'-carboxy)ethylimidazol-2-yl-thioacetamido]-3-methoxy-3-cephem-4-carboxylic acid]
- concentration at 0.5 h [1]: 8400 ng/mL
- concentration at 1 h [1]: 6700 ng/mL
- concentration at 2 h [1]: 3400 ng/mL
- concentration at 4 h [1]: 1100 ng/mL

Compound: Cn1nncc1SCC1=C(C(=O)O)N2C(=O)[C@@H](NC(=O)CSc3nc(C[C@H](N)C(=O)O)c[nH]3)[C@H]2SC1 [Example 7, 7-β-[4-(2'-amino-2'-carboxy)ethylimidazol-2-yl-thioacetamido]-3-[(1-methyl-1H-1,2,3-triazole)thiomethyl]-3-cephem-4-carboxylic acid]
- concentration at 0.5 h [1]: 4200 ng/mL
- concentration at 1 h [1]: 2100 ng/mL
- concentration at 2 h [1]: 700 ng/mL
- concentration at 4 h [1]: 400 ng/mL

Compound: CC1=C(C(=O)O)N2C(=O)[C@@H](NC(=O)CSc3nc(C[C@H](N)C(=O)O)c[nH]3)[C@H]2SC1 [Example 8, 7-β-[4-(2'-amino-2'-carboxy)ethylimidazol-2-yl-thioacetamido]-3-methyl-3-cephem-4-carboxylic acid]
- concentration at 0.5 h [1]: 14900 ng/mL
- concentration at 1 h [1]: 11300 ng/mL
- concentration at 2 h [1]: 7200 ng/mL
- concentration at 4 h [1]: 4000 ng/mL

Compound: Cc1nnc(SCC2=C(C(=O)O)N3C(=O)[C@@H](NC(=O)CSc4nc(C[C@H](N)C(=O)O)c[nH]4)[C@H]3SC2)s1 [Example 3, 7-β-[4-(2'-amino-2'-carboxy)ethylimidazol-2-yl-thioacetamido]-3-[2-(2-methyl-1,3,4-thiazolyl)thiomethyl]-3-cephem-4-carboxylic acid]
- concentration at 0.5 h [1]: 11300 ng/mL
- concentration at 1 h [1]: 12400 ng/mL
- concentration at 2 h [1]: 13700 ng/mL
- concentration at 4 h [1]: 9400 ng/mL

Compound: N[C@@H](Cc1c[nH]c(SCC(=O)N[C@@H]2C(=O)N3C(C(=O)O)=C(Cl)CS[C@H]23)n1)C(=O)O [Example 10, 7-β-[4-(2'-amino-2'-carboxy)ethylimidazol-2-yl-thioacetamido]-3-chloro-3-cephem-4-carboxylic acid]
- concentration at 0.5 h [1]: 7400 ng/mL
- concentration at 1 h [1]: 5900 ng/mL
- concentration at 2 h [1]: 3000 ng/mL
- concentration at 4 h [1]: 1800 ng/mL

Compound: CO[C@@]1(NC(=O)CSc2nc(C[C@H](N)C(=O)OCOC(C)=O)c[nH]2)C(=O)N2C(C(=O)OCOC(C)=O)=C(CSc3nnnn3C)CS[C@@H]21 [Example 14, 7-β-[4-(2'-amino-2'-carboxy)ethylimidazol-2-yl-thioacetamido]-7α-methoxy-3-[(1-methyl-1H-tetrazol-5-yl)thiomethyl]-3-cephem-4-carboxylic acid diacetoxymethyl ester]
- concentration at 0.5 h ([2]; 0.5 hr.): 6800 ng/mL
- concentration at 1 h ([2]; 1 hr.): 4100 ng/mL
- concentration at 4 h ([2]; 4 hrs.): 2300 ng/mL

Compound: N[C@@H](Cc1c[nH]c(SCC(=O)N[C@@H]2C(=O)N3C(C(=O)O)=C(CSc4cnn[nH]4)CS[C@H]23)n1)C(=O)O [Example 5, 7-β-[4-(2'-amino-2'-carboxy)ethylimidazol-2-yl-thioacetamido]-3-[(1,2,3-triazole)thiomethyl]-3-cephem-4-carboxylic acid]
- concentration at 0.5 h [1]: 12400 ng/mL
- concentration at 1 h [1]: 13700 ng/mL
- concentration at 2 h [1]: 14300 ng/mL
- concentration at 4 h [1]: 10200 ng/mL

Compound: CC(=O)NC(Cc1c[nH]c(SCC(=O)NC2C(=O)N3C(C(=O)O)=C(CSc4nnc(C)s4)CSC23)n1)C(=O)O (stereo not drawn) [(18), 7-β-[4-(2'-methylamido-2'-carboxy)ethylimidazol-2-yl-thioacetamido]-3-[2-(2-methyl-1,3,4-thiazolyl)thiomethyl]-3-cephem-4-carboxylic acid]
- Blood Concentration of the Compound ([2]; 0.5 hr.): 10300 ng/mL
- Blood Concentration of the Compound ([2]; 1 hr.): 11200 ng/mL
- Blood Concentration of the Compound ([2]; 4 hrs.): 4900 ng/mL

Compound: CO[C@@]1(NC(=O)CSc2nc(C[C@H](N)C(=O)O)c[nH]2)C(=O)N2C(C(=O)O)=C(CSc3nnnn3C)CS[C@@H]21 [Example 13, 7-β-[4-(2'-amino-2'-carboxy)ethylimidazol-2-yl-thioacetamido]-7α-methoxy-3-[(1-methyl-1H-tetrazol-5-yl)thiomethyl]-3-cephem-4-carboxylic acid]
- concentration at 0.5 h ([2]; 0.5 hr.): 4600 ng/mL
- concentration at 1 h ([2]; 1 hr.): 3100 ng/mL
- concentration at 4 h ([2]; 4 hrs.): 1100 ng/mL

Compound: Cn1nnnc1SCC1=C(C(=O)O)N2C(=O)[C@@H](NC(=O)CSc3nc(C[C@H](N)C(=O)O)c[nH]3)[C@H]2SC1 [drawing 11]
- MIC Value [3]: 12.5 µg/mL (≈ 22.5 µM)
- MIC Value (E. Coli W3630): 25 µg/mL (≈ 45 µM)
- MIC Value (Staph. aureus MS 27): 12.5 µg/mL (≈ 22.5 µM)
- MIC Value (Staph. aureus 0003): 12.5 µg/mL (≈ 22.5 µM)
- MIC Value (Staph. aureus ATCC 6538p): 1.6 µg/mL (≈ 2.88 µM)
- MIC Value (E. Coli NIHJ-JC2): 25 µg/mL (≈ 45 µM)
- MIC Value [4]: 12.5 µg/mL (≈ 22.5 µM)
- MIC Value (E. Coli W3630 ps 3): 25 µg/mL (≈ 45 µM)

Compound: CO[C@@]1(NC(=O)CSc2nc(C[C@H](N)C(=O)O)c[nH]2)C(=O)N2C(C(=O)O)=C(COC(C)=O)CS[C@@H]21 [Example 12, 7-β-[4-(2'-amino-2'-carboxy)ethylimidazol-2-yl-thioacetamido]-7α-methoxy-3-acetoxymethyl-3-cephem-4-carboxylic acid]
- concentration at 0.5 h ([2]; 0.5 hr.): 3900 ng/mL
- concentration at 1 h ([2]; 1 hr.): 1700 ng/mL
- concentration at 4 h ([2]; 4 hrs.): 400 ng/mL

Compound: Cc1nnc(SCC2=C(C(=O)O)N3C(=O)[C@@H](NC(=O)CSc4nc(C[C@H](N)C(=O)O)c[nH]4)[C@H]3SC2)o1 [Example 6, 7-β-[4-(2'-amino-2'-carboxy)ethylimidazol-2-yl-thioacetamido]-3-[(2-methyl-1,3,4-oxadiazole)thiomethyl]-3-cephem-4-carboxylic acid]
- concentration at 0.5 h [1]: 8000 ng/mL
- concentration at 1 h [1]: 5300 ng/mL
- concentration at 2 h [1]: 3600 ng/mL
- concentration at 4 h [1]: 1000 ng/mL

Compound: N[C@@H](Cc1c[nH]c(SCC(=O)N[C@@H]2C(=O)N3C(C(=O)O)=CCS[C@H]23)n1)C(=O)O [Example 11, 7-β-[4-(2'-amino-2'-carboxy)ethylimidazol-2-yl-thioacetamido]-3-cephem-4-carboxylic acid]
- concentration at 0.5 h [1]: 8300 ng/mL
- concentration at 1 h [1]: 7400 ng/mL
- concentration at 2 h [1]: 4200 ng/mL
- concentration at 4 h [1]: 1800 ng/mL

Compound: Cn1nnnc1SCC1=C(C(=O)O)N2C(=O)[C@@H](NC(=O)CSc3nc(C[C@H](N)C(=O)O)c[nH]3)[C@H]2SC1 [Example 2, 7-β-[4-(2'-amino-2'-carboxy)ethylimidazol-2-yl-thioacetamido]-3-[(1-methyl-1H-tetrazol-5-yl)thiomethyl]-3-cephem-4-carboxylic acid]
- concentration at 0.5 h [1]: 4700 ng/mL
- concentration at 1 h [1]: 2900 ng/mL
- concentration at 2 h [1]: 2000 ng/mL
- concentration at 4 h [1]: 1000 ng/mL

Compound: Cc1nnc(SCC2=C(C(=O)O)N3C(=O)[C@@H](NC(=O)CSc4nc(C[C@H](N)C(=O)O)c[nH]4)[C@H]3SC2)s1 [drawing 13]
- MIC Value [3]: 50 µg/mL (≈ 87.5 µM)
- MIC Value (E. Coli W3630): 50 µg/mL (≈ 87.5 µM)
- MIC Value (Staph. aureus MS 27): 25 µg/mL (≈ 43.7 µM)
- MIC Value (Staph. aureus 0003): 25 µg/mL (≈ 43.7 µM)
- MIC Value (Staph. aureus ATCC 6538p): 1.6 µg/mL (≈ 2.8 µM)
- MIC Value (E. Coli NIHJ-JC2): 50 µg/mL (≈ 87.5 µM)
- MIC Value [4]: 25 µg/mL (≈ 43.7 µM)
- MIC Value (E. Coli W3630 ps 3): 50 µg/mL (≈ 87.5 µM)

Compound: 7-β-[4-(2'-amino-2'-carboxy)ethylimidazol-2-yl-thioacetamido]-7α-methoxy-3-[(1-methyl-1H-tetrazol-5-yl) thiomethyl]-3-cephem-4-carboxylic acid ditert-butylcarboxymethyl ester [(19)]
- Blood Concentration of the Compound ([2]; 0.5 hr.): 7200 ng/mL
- Blood Concentration of the Compound ([2]; 1 hr.): 3900 ng/mL
- Blood Concentration of the Compound ([2]; 4 hrs.): 1600 ng/mL
